The record followed here is ChEMBL document CHEMBL5226297, “Small-Molecule Drug Discovery in Triple Negative Breast Cancer: Current Situation and Future Directions” (J Med Chem, 2021).

By IC50 is commonly meant the concentration that gives 50% inhibition.

The test system of assay [1] is MDA-MB-436. The assay is described as follows: Anticancer activity against human MDA-MB-436 cells assessed as cell growth inhibition incubated for 24 hrs by MTT assay. Conditions: MDA-MB-436, 24 h. Format: functional, cell-based. (Tetrazolium assays rely on reduction of a dye to a coloured formazan, in cell work by metabolically active cells.)
The test system of assay [2] is MDA-MB-231. Description: Anticancer activity against human MDA-MB-231 cells assessed as cell growth inhibition incubated for 24 hrs by MTT assay. Format: functional, cell-based. The conditions noted are these: MDA-MB-231, 24 h.
Assay [3] concerns BT-549. The assay is described as follows: Anticancer activity against human BT-549 cells assessed as cell growth inhibition by MTS assay. Format: functional, cell-based.
For assay [4], the system named is MDA-MB-231. Description: Anticancer activity against human MDA-MB-231 cells assessed as cell growth inhibition by MTS assay. It counts as functional, cell-based.
In assay [5] the test system is Hs-578T. Description: Anticancer activity against human Hs-578T cells assessed as cell growth inhibition by MTS assay. It counts as functional, cell-based.
Assay [6] relates to BT-549. The assay is described as follows: Anticancer activity against human BT-549 cells assessed as cell growth inhibition incubated for 24 hrs by MTT assay. Format: functional, cell-based. Conditions: BT-549, 24 h.
In assay [7] the target is Protein SET (Homo sapiens) (UniProt Q01105). The assay is described as follows: Inhibition of SET (unknown origin).
Chain of Protein SET (Homo sapiens) (Q01105 whole entry): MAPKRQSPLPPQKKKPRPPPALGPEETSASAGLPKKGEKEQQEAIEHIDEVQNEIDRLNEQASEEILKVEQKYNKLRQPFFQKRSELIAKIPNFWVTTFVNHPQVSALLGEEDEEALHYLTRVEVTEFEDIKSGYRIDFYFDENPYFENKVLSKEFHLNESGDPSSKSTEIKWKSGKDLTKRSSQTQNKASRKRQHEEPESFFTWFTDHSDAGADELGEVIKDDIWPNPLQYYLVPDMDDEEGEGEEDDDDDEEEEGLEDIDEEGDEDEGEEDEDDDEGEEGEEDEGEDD
Assay [8] has as its system MDA-MB-231. Description: cells. Conditions: Homo sapiens, MDA-MB-231, 48 h.
Assay [9] concerns MDA-MB-468. The assay is described as follows: Anticancer activity against human MDA-MB-468 cells assessed as cell growth inhibition incubated for 48 hrs by BrdU assay. It counts as functional, cell-based. The conditions noted are these: MDA-MB-468, 48 h.
Assay [10] has as its system MDA-MB-231. Description: Anticancer activity against human MDA-MB-231 cells assessed as cell growth inhibition incubated for 48 hrs by BrdU assay. Conditions: MDA-MB-231, 48 h. It counts as functional, cell-based. (In general: Dividing cells build labelled thymidine or BrdU into new DNA.)
Assay [11] has as its system HCC1937. Description: Anticancer activity against human HCC1937 cells assessed as cell growth inhibition incubated for 72 hrs by MTT assay. Format: functional, cell-based. The conditions noted are these: HCC1937, 72 h.
Assay [12] concerns Hs-578T. Description: Anticancer activity against human Hs-578T cells assessed as cell growth inhibition incubated for 72 hrs by MTT assay. Format: functional, cell-based.
Assay [13] has as its system HCC70. The assay is described as follows: Anticancer activity against human HCC70 cells assessed as cell growth inhibition incubated for 72 hrs by MTT assay. Format: functional, cell-based. Conditions: HCC70, 72 h.
The test system of assay [14] is MDA-MB-231. The assay is described as follows: Anticancer activity against human MDA-MB-231 cells assessed as cell growth inhibition incubated for 72 hrs by MTT assay. It counts as functional, cell-based. Conditions: MDA-MB-231, 72 h.
Assay [15] addresses Plasminogen activator inhibitor 1 (Homo sapiens) (UniProt P05121).
For assay [16], the system named is MDA-MB-231. Description: Anticancer activity against human MDA-MB-231 cells assessed as cell growth inhibition. It counts as functional, cell-based.
In assay [17] the target is Protein tyrosine phosphatase type IVA 3 (Homo sapiens) (UniProt O75365). The assay is described as follows: Inhibition of human PRL-3 incubated for 48 hrs by MMP assay.
Chain of Protein tyrosine phosphatase type IVA 3 (Homo sapiens) (O75365 whole entry): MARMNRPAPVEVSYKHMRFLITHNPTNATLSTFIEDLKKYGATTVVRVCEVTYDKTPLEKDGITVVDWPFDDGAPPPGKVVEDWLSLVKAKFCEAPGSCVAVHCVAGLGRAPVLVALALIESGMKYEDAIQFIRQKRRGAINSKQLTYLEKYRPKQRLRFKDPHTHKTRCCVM
Assay [18] is described as follows: Inhibition of ERK (unknown origin). Also noted: species or system Homo sapiens.

The structures appear in SMILES notation.

Chain of Plasminogen activator inhibitor 1 (Homo sapiens) (P05121 whole entry): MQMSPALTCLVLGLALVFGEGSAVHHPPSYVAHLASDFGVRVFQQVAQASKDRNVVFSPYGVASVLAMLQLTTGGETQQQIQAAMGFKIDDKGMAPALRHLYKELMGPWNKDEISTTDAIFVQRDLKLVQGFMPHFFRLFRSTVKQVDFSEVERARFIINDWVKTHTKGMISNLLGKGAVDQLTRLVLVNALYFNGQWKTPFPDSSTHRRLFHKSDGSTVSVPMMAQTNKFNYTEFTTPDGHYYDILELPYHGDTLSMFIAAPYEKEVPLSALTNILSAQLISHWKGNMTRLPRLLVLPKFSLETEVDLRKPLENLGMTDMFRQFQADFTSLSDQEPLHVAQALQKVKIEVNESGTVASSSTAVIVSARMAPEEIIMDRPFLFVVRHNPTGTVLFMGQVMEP

As for `N[C@@H](C(=O)N[C@@H]1C(=O)N2C(C(=O)O)=C(CSc3c[nH]nn3)CS[C@H]12)c1ccc(O)cc1` [CEFATRIZINE], in assay [1], the half-inhibitory concentration (IC50) is 30 µM. With `OC[C@H]1O[C@@H](OCCc2ccc(O)cc2)[C@H](O)[C@@H](O)[C@@H]1O` [SALIDROSIDE], the half-inhibitory concentration (IC50) in assay [2] is 40 µM.

On to `COc1cc2nccc(C(OC(C)=O)c3ccc4c(c3OC)C=CC(C)(C)O4)c2cc1OC` (stereo unspecified), for which the IC50 was 15 µM in [3], 5 µM in assay [4] and 5 µM in assay [5].

Regarding `C=C1C(=O)O[C@]2(C)CC[C@H](CBr)[C@]12O`, the IC50 in assay [2] was found to be 12.1 µM; in assay [1], 11.8 µM; in [6], 9.63 µM.

Take `C#Cc1cccc(Nc2nc(Nc3ccc(Oc4ccccc4)cc3)nc3cc(OC)c(OC)cc23)c1`: the IC in assay [7] was 3 µM. Turning to `C=C1C(=O)O[C@]2(C)CC[C@H](CBr)[C@]12OC`, the results for the concentration for half-maximal inhibition (IC50) in [2], in assay [1] and in assay [6] were 7.91 µM, 8.63 µM and 6.61 µM, respectively. In the case of `C=C(C)[C@@H]1CCC(C)=C[C@H]1c1c(O)cc(CCCCC)cc1O` [CANNABIDIOL], in assay [8], the IC50 stood at 6 µM. Regarding `C=C1[C@H]2[C@@H](/C(=C/C)C(=O)[C@H]2CC(=O)C(C)CC)[C@H](C(C)C)N[C@H]1CC(=O)/C=C(\C)CC` (stereo partly specified), the IC50 in [2] stood at 5 µM. Turning to `CC(C)CC[C@@H]1NC(=O)[C@]2(C)CCCN2C1=O`, the results for the IC50 in assay [9] and in [10] were 67.4 µM and 73.4 µM, respectively.

Turning to `COC(=O)Nc1nc2cc(C(=O)c3ccc(F)cc3)ccc2[nH]1` [FLUBENDAZOLE], the 50% inhibitory concentration (IC50) was determined as 0.125 µM in assay [3], 0.5 µM in assay [2], 0.25 µM in assay [4] and 0.125 µM in assay [5]. With `CN(C)CC/C=C1\c2ccccc2COc2ccc(CC(=O)NN)cc21`, the concentration for half-maximal inhibition (IC50) in assay [1] was 5 µM. `C[C@@H]1COC(Nc2ccc3ncnc(Nc4ccc(OCc5nccs5)c(Cl)c4)c3c2)=N1` [VARLITINIB]: the IC50 in [11] is 20 µM; in assay [12], 10 µM; in [13], 10 µM. Turning to `CNCCC(Oc1ccc(C(F)(F)F)cc1)c1ccccc1` (stereo unspecified) [FLUOXETINE], the IC50 in assay [2] and in [1] was 0.5 µM each time.

With `Cc1nc(NCc2ccccc2F)ncc1C(=O)NCc1cccs1`, the half-inhibitory concentration (IC50) in assay [1] is 7.89 µM.

For `CC[C@@H](C(=O)[C@@H](C)[C@@H](O)[C@H](C)[C@@H]1O[C@@H]([C@@H](CC)C(=O)O)CC[C@@H]1C)[C@H]1O[C@]2(C=C[C@@H](O)[C@]3(CC[C@@](C)([C@H]4CC[C@](O)(CC)[C@H](C)O4)O3)O2)[C@H](C)C[C@@H]1C` [SALINOMYCIN], the 50% inhibitory concentration (IC50) in assay [4] came to 0.5 µM. Turning to `C=Cc1c(C)c2cc3nc(c4c5nc(cc6[nH]c(cc1[nH]2)c(C)c6CC)C(C)=C5C(=O)[C@@H]4C(=O)OC)C(CCC(=O)O)=C3C`, in [14], the IC50 was found to be 6.5 µM. On to `CC(=O)N1c2ccccc2Oc2ccccc21`, for which, in [2], the concentration for half-maximal inhibition (IC50) was 0.3 µM. `O=C(O)C(=O)c1cn(Cc2ccccc2)c2ccc(-c3ccc(OC(F)(F)F)cc3)cc12` showed an IC in assay [15] of 5 µM. Turning to `C=C1C(=O)O[C@@H]2C[C@@]3(C)CCC[C@H](C)C3=C[C@H]12` [HELENINE], the IC50 in assay [2] is 15 µM. `CO[C@H]1C[C@H](C)Cc2cc(O)cc(c2)NC(=O)/C(C)=C/CC[C@H](OC)[C@@H](OC(N)=O)/C(C)=C/[C@H](C)[C@H]1O`: in [16], the IC50 worked out at 74.9 µM. Regarding `O=C(Nc1ccc([N+](=O)[O-])cc1Cl)c1cc(Cl)ccc1O` [NICLOSAMIDE], the IC50 in [2] came out at 0.625 µM. In assay [17], `C=C1/C(=C\C=C2/CCC[C@]3(C)[C@@H]([C@H](C)CCCC(C)(C)O)CC[C@@H]23)C[C@@H](OC(=O)CBr)C[C@@H]1O` came in with an IC of 100 nM.

In turn, `Clc1cc(Cl)cc(C(Cn2ccnc2)OCc2nc3ccccc3s2)c1` (stereo unspecified) showed an IC50 in assay [18] of 5 µM.
